The source of these data is US8404660B2, “Method of obtaining of 4-N-furfurylcytosine and/or its derivatives, an anti-aging composition and use of 4-N-furfurylcytosine and/or its derivatives in the manufacture of anti-aging composition” (Instytut Chemii Bioorganicznej Pan, priority 2007, dated 2013).

Series [1] can be described thus: solubility observed during purification. In kind it is physicochemical. How it is done:
The second step was the reaction of furfurylamine (FIG. 1 V) with 4-N-p-toluenesulfonyl-2′-deoxycytidine (FIG. 1 I). The third step was depended on creating of 4-N-furfurylcytosine (FIG. 1 III), by cleavage of N-glycosyl bond by solution of inorganic acid in water (pH of this solution was about 3).
In this reason, purify on the column was performed in warm water (40-45° C.). The column was referred by aluminium foil, because the decrease temperature of water was carried out to precipitate of the product on the gel. The purification of the product was performed two times, because acid degradation of ribose gave a lot of byproducts, obstructed purification. The main product was eluted in 0.1% warm water solution of methanol. When the temperature of solvent was higher than 45° C., the product could elute earlier. The 4-N-furfurylcytosine was crystallized in water, gave colorless crystals, which form thin needles.

For another series, the system named is fibroblast cells. Kind of series: cytotoxic effect of FC on fibroblast cell viability, long-term culture. In kind it is cell-based. As to conditions: 100 μM FC, vs untreated control. How it is done:
It was observed much less living cells and after 5 weeks they are clearly death (FIG. 2A).
(§1) HeLa and fibroblast cells are routinely maintained in this laboratory. Fibroblast cells were grown in Optimem medium supplemented with 10% fetal calf serum and antibiotics, HeLa cells were grown in RPMI 1640 supplemented with 10% fetal calf serum and antibiotics (penicillin 100 U/ml and streptomycin 100 ug/ml). All cell lines were incubated in a humidified atmosphere with 5% CO2 in air at 37° C.
There 1×10^6 cells on 6-well plates were used to study the cytotoxicity area of FC on cell growth in the presence or absence of FC.

The subject of series [2] is GAPDH. Kind of series: RT/PCR analysis of GAPDH gene expression in fibroblast cells. The series is classed as cell-based. As to conditions: fibroblast cells cultured 5 weeks with 100 μM FC; phosphoimager analysis. How it is done: To confirm this observation total RNA was isolated and RT/PCR was perform to analyzed total GAPDH gene expression as a result of condition of cells survival (FIG. 2B) The phosphoimager analysis was performed to determined differences in GAPDH expression in fibroblast cells. We observed that it is 72% lower in FC treated cells in comparison to the control (FIG. 2C).
(§2) Total RNA from cells was isolated using TRIZOL reagent (Invitrogen). Samples for analyses of gene expression were prepared from cultured Hela and fibroblast cells Aliquots (1×10^6 cells) were removed and homogenized in TRIZOL reagent (Invitrogen). Total RNA was then chloroform extracted and precipitated using iso-propanol and ethanol. Reverse transcription was carried out using: 2 μg RNA, random primer and RevertAid™ H Minus M-MuLV reverse transcriptase (Fermentas) according to the manufactures instructions. The resultant cDNA was amplified with primers complementary to the glyceraldehyde-3-phosphate dehydrogenase, GAPDH (G1: GGGTGGAGCCAAACGGGTC, G2: […]) PCR reaction was initiated with denaturation at 94° C. for 2 min, annealing at 55° C. for 1 min, extension at 72° C. for 30 sec, followed by 30 cycles. Equal volumes of amplified products were electrophoresed on 1 agarose gel and stained with ethidium bromide.
Differences in expression level were determined using Phosphoimager and ImageQant program.

In series [3] the test system is GAPDH. Kind of series: RT-PCR analysis of GAPDH gene expression in HeLa cells (internal control). The series is classed as cell-based. The conditions noted are these: 100 μM FC, 24 hours, vs untreated control. Here is the method: In other test, we have analyzed influence of FC on the specific gene expression. In this case it was DNMT-1. Effect of FC on DNMT-1 expression was check in HeLa cells after 24 hours (FIG. 3A).
as §1
as §2, with “Equal volumes of amplified products were electrophoresed on 1 agarose gel and stained with ethidium bromide.” left out

SMILES strings stand for the structures. “Also recorded” adds a separate entry of the source.

Turning to `O=c1nc(NCc2ccco2)cc[nH]1` [FC, 4-N-furfurylcytosine], the solubility in solvents result in series [1] (all solvents) is on record as “low solubility”. Further, in series [1] (water, increases with temperature), the solubility in water result is given as “best solubility”. Besides, the fibroblast cell viability entry with fibroblast cells (after 3 weeks of culture) is “decreases in cell viability”. Further, the “fibroblast cell viability / cytotoxic effect” value in the series on fibroblast cells (after 5 weeks of culture) was “clearly death; also recorded: cytotoxic effect”. In the series on GAPDH [2], the “GAPDH expression lower in FC treated cells in comparison to the control” value turned out to be 72%. Also, the GAPDH expression level entry with GAPDH [3] is “stable and similar”.
